In BigSolDB 2.1:

c1ccc2[nH]c(-c3cscn3)nc2c1
solubility (mole fraction)
Settings | 283.15 K | 288.15 K | 293.15 K | 298.15 K | 303.15 K | 308.15 K | 313.15 K | 318.15 K | 323.15 K
in 2-butanone | 0.0012 | 0.00137 | 0.00151 | 0.00161 | 0.00186 | 0.00209 | 0.00223 | 0.00241 | 0.0025
in acetone | 0.000605 | 0.000711 | 0.000796 | 0.000936 | 0.00105 | 0.00119 | 0.00139 | 0.00153 | 0.00173
in acetonitrile | 0.000112 | 0.00012 | 0.000145 | 0.000149 | 0.000209 | 0.000253 | 0.000309 | 0.000339 | 0.000403
in ethanol | 0.00128 | 0.0014 | 0.00153 | 0.00163 | 0.00192 | 0.00213 | 0.00234 | 0.00274 | 0.00295
in ethyl acetate | 0.000435 | 0.000523 | 0.000638 | 0.000704 | 0.000825 | 0.000956 | 0.00109 | 0.00116 | 0.00127
in isobutanol | 0.000905 | 0.00104 | 0.00123 | 0.00144 | 0.00176 | 0.00202 | 0.0023 | 0.00258 | 0.00294
in isopropanol | 0.000699 | 0.000762 | 0.00089 | 0.000954 | 0.00118 | 0.00136 | 0.0016 | 0.00182 | 0.00198
in methanol | 0.00133 | 0.00142 | 0.00158 | 0.00167 | 0.00211 | 0.00219 | 0.00244 | 0.00279 | 0.00301
in methyl acetate | 0.000378 | 0.000515 | 0.000608 | 0.000636 | 0.000758 | 0.000822 | 0.000899 | 0.000953 | 0.00117
in n-butanol | 0.0016 | 0.0018 | 0.00193 | 0.0022 | 0.00266 | 0.0029 | 0.00337 | 0.00371 | 0.00416
in n-butyl acetate | 0.000445 | 0.000544 | 0.000646 | 0.000724 | 0.000881 | 0.00098 | 0.00114 | 0.00122 | 0.00136
in n-propanol | 0.00137 | 0.00148 | 0.00173 | 0.00181 | 0.00217 | 0.00246 | 0.00274 | 0.00303 | 0.00347
